In experiment [1] the test system is C57BL/6J mice. As to the kind of experiment: Collagen accumulation (Masson's trichrome, picrosirius red) and macrophage marker F4/80 immunohistochemical staining of renal tissue. The class given is in vivo. The following applies: treatment group vs diabetes group, 10 mg/kg/day oral, 12 weeks; listed as Example 1, 10 mg/kg/day. On the procedure:
Immunohistochemical staining was performed as previously disclosed (Noh H, Kim J S, Han K-H, Lee G T, Song J S, Chung S H, Jeon J S, Ha H, Lee H B: Oxidative stress during peritoneal dialysis: implications in functional and structural changes in the membrane. Kidney Int. 69: 2022-2028, 2006).
Briefly, as described in Example 11, diabetes was induced in mice that were then treated with 1-(pyridin-2-yl)-3-phenyl-4-propyl-1H-pyrazol-5-ol.HCl, the compound of Example 1, and scarified 12 weeks later. After cardiac perfusion with 0.1 M PBS (phosphate-buffered saline), tissue fixation was performed overnight with 2% PLP (paraformaldehyde-lysine-periodate). Paraffin embedding was conducted by sequential treatment with: 70% ethanol for 1 hr; 80% ethanol for 1 hr; 90% ethanol for 1 hr; 95% ethanol for 1 hr, twice; 100% ethanol for 1 hr, three times; xylene for 30 min, twice; paraffin for 30 min; and paraffin for 1.5 hrs. The paraffin tissue was sliced into a section 4 μm thick, followed by deparaffinization with alcohol. In order to enhance antibody penetration thereinto, the renal tissue was immersed in 10 mM citrate buffer (pH 6.0), heated with microwaves (at 700 watts for 5 min and then at 100 watts for 5 min), and then finally incubated at room temperature for 30 min Intrinsic peroxidase was removed by treatment with peroxidase blocking reagent (Peroxidase Blocking Reagent Ready-To-Use, Dakocytomation) for 30 min. Subsequently, the renal tissue was incubated with a protein block serum-free solution (Protein Blocking Serum-Free Ready-To-Use, Dakocytomation) for 15 min and then overnight with a primary antibody (F4/80, Santa Cruz) at 4° C., followed by amplification with ABC kit (Santa Cruz) using the ABC (avidin-biotin-enzyme complex) method. […]
To examine tissue injury, staining was performed with Masson's trichrome (Sigma-Aldrich) and picrosirius red (Sigma-Aldrich) according to the manufacturer's instructions. The degree of tissue injury was expressed as tubulointerstitial collagen accumulation per area. […]

Experiment [2] relates to C57BL/6J mice. In words: Renal fibrosis: real-time PCR analysis of renal tissues. The class given is in vivo. The following applies: renal tissue, treatment group vs diabetes group, 12 weeks. The method, then: Total RNA was isolated using Trizol reagent (Invitrogen) according to the manufacturer's instruction. The total RNA isolate was used for real-time PCR.
Briefly, as described in Example 10, diabetes was induced, and 1-(pyridin-2-yl)-3-phenyl-4-propyl-1H-pyrazol-5-ol.HCl, the compound of Example 1 of the present invention, was administered to the mice that were sacrificed 12 weeks later. Then, renal tissues were excised from the mice and homogenized with a predetermined amount (500 μl) of Trizol reagent (Invitrogen), followed by centrifuging the homogenate (13,000 rpm, 10 min). The supernatant was reacted with 200 μl of chloroform for 15 min and centrifuged. The total RNA was precipitated with isopropyl alcohol, and washed with 75% ethyl alcohol before use in experiments. From 2 μg of total RNA, cDNA was synthesized using a reverse transcription kit (Applied Biosystems), and selective mRNA was quantitatively analyzed in ABI 7300 real-time PCR thermal cycler (Applied Biosystems) with the aid of SYBR Green PCR Master Mix kit according to the manufacturer's instruction. Each experiment was run in duplicate with 20 μl. For correct quantitation and identification of results from a single product, a standard curve and a dissociation curve were employed. PCR was performed with 40 thermal cycles of 95° C. for 15 sec and 56° C. for 1 min.
In FIG. 3, the control (WT) stands for a group in which type 1 diabetes mellitus was not induced, the diabetes group (DM) for a group in which type 1 diabetes mellitus was induced, and the treatment group (DM+compound of Example 1) for a group that was treated with the compound of Example 1 after introduction of type 1 diabetes mellitus. Data of FIG. 3 are expressed as mean±standard error (SE) from 8 to 12 mice per group. Statistic comparison among the groups was analyzed by ANOVA and Fisher's least significant difference test, with significance at p<0.05. *P<0.05 vs. WT, †P<0.05 vs. DM.
On the technique in general: Real-time PCR tracks product formation cycle by cycle.

This note sets out measurements from patent publication US10047067B2, “Composition for treating kidney disease comprising pyrazole derivative” (Ewha University-Industry Collaboration Foundation, priority 2012, dated 2018).

“Also recorded” adds a separate entry of the source.

`CCCc1c(-c2ccccc2)nn(-c2ccccn2)c1O.Cl` [Compound 18-278, 1-(pyridin-2-yl)-3-phenyl-4-propyl-1H-pyrazol-5-ol.HCl]: in experiment [1], the “collagen accumulation, Masson's trichrome staining (blue area)” value is listed as “in a smaller area than was the diabetes group; also recorded: significantly reduced”; the “collagen accumulation, picrosirius red staining (red area)” value is recorded as “a smaller area; also recorded: significantly reduced”; the “macrophage production, immunohistochemical staining (F4/80)” value is “in a smaller area than was the diabetes group; also recorded: significantly reduced”. In addition, in experiment [2], the “expression level of Collagen Iα1 mRNA to 18S rRNA” value was “significantly decreased”, the “expression level of F4/80 mRNA to 18S rRNA” value is given as “significantly decreased”, the “expression level of TGF-β1 mRNA to 18S rRNA” value was “significantly decreased” and the “expression level of collagen IV mRNA to 18S rRNA” value is “significantly decreased”. In experiment [2], the “expression level of fibronectin mRNA to 18S rRNA” value is “significantly decreased”.
